We go through 1 compound from patent US20260062422A1 (Halda Therapeutics OpCo, Inc., priority 2022, published 2026).

In this assay the test system is LnCaP95 Parental cells. Put plainly: Cellular growth inhibition assay for LnCaP95 Parental cells, CellTiter-Glo. It counts as cell-based. The conditions noted are these: CellTiterGlo assay, 6 days. How it is done: T47D LnCap95 Parental and T47D LnCap95 AR-FL KO cells were seeded in 25 μL growth media in poly-d lysine coated black clear-bottom 384-well plates at 2500 cells/well with Phenol Red Free RPMI containing 10% charcoal stripped serum and 1% pen strep. Following seeding, plates were spun at 300×g for 30 seconds, then equilibrated to room temperature for 30 minutes, and moved into the incubator. 24 hours after seeding, compounds were titrated in 100% DMSO and diluted in growth medium. 25 μL of the compound/medium mixture was added to cells, bringing the total volume in each well to 50 μL. DMSO was used as a negative control.
After treatment, plates were spun at 300×g for 30 seconds, then cultured at 37° C. with 5% CO2 for 6 days in a humidified tissue culture incubator. On Day 6 of treatment, cell viability was quantified with CellTiter-Glo 2.0 reagent (Promega). Plates were equilibrated to room temperature for 30 minutes, then 25 μL of CellTiter-Glo 2.0 reagent was added to cells, bringing the total volume in each well to 75 μL. After reagent was added, plates were spun at 300×g for 30 seconds then mixed on a shaker for two minutes at 500 rpm and then incubated in dark at room temperature for 10 minutes. Following incubation, plates were spun at 300×g for 30 seconds, sealed with an optical adhesive cover, and luminescence readings were measured with an EnVision Plate Reader. […]

The term GI50 denotes the concentration at which growth is held to half of that of the control. Take `Cc1sc2c(c1C)C(c1ccc(OC3CC4(CCN(c5ncc(C(=O)N[C@H]6C(C)(C)[C@H](Oc7ccc(C#N)c(Cl)c7)C6(C)C)cn5)CC4)C3)cc1)=N[C@@H](Cc1ncco1)c1nnc(C)n1-2` [Compound I-49, N-[3-(3-chloro-4-cyano-phenoxy)-2,2,4,4-tetramethyl-cyclobutyl]-2-[2-[4-[(9S)-4,5,13-trimethyl-9-(oxazol-2-ylmethyl)-3-thia-1,8,11,12-tetrazatricyclo[8.3.0.02,6]trideca-2(6),4,7,10,12-pentaen-7-yl]phenoxy]-7-azaspiro[3.5]nonan-7-yl]pyrimidine-5-carboxamide]: the “activity in parental LnCaP95 cells compared to AR knockout cells” value (parental vs LnCaP95 AR-FL KO cells) was “enhanced activity in parental LnCaP95 cells”. For the setting “LNCaP-95, 144 h, parental LnCaP95 cells”, the concentration for 50% growth inhibition (GI50) amounted to 37 nM.
